For 22 compounds, IC50 results are on record in patent publication US20240383875A1, “Benzimidazole Pyridine Derivatives” (Hoffmann-La Roche Inc., priority 2022, published 2024).

Usually IC50 stands for the concentration at which inhibition is half-maximal.

Assay type in all cases: biochemical
One assay addresses SIK1 (Homo sapiens, UniProt P57059). The assay is described as follows: Enzymatic activity assay SIK1, RapidFire mass spectrometry (phosphorylation of CHK-peptide). Conditions: RapidFire MS, inhibition of SIK1; read-out: SIK1 RF IC50. The method, boiled down: (§1)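 Compounds (12-point, 3-fold, generally 30 μM to 170 pM) were pre-incubated 30 min at ambient temperature with SIK1 (5 nM), SIK2 (0.5 nM) or SIK3 (1.5 nM) in HEPES pH 7.0/magnesium acetate buffer. CHK-peptide (10 μM solution) and ATP (100 μM solution) were then added for 45 min before formic acid quench.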

For a further assay, the target named is SIK2 (Homo sapiens, UniProt Q9H0K1). As to the kind of experiment: Enzymatic activity assay SIK2, RapidFire mass spectrometry (phosphorylation of CHK-peptide). Conditions: RapidFire MS, inhibition of SIK2; read-out: SIK2 RF IC50. The method, boiled down:
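SIK2 (0.5 nM) in pH 7.0 HEPES buffer with 10 mM Mg acetate phosphorylates CHK-peptide (10 μM solution) with 100 μM ATP solution, 45 min ambient, then formic acid quench.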

Another assay has as its target SIK3 (Homo sapiens, UniProt Q9Y2K2). As to the kind of experiment: Enzymatic activity assay SIK3, RapidFire mass spectrometry (phosphorylation of CHK-peptide). As to conditions: RapidFire MS, inhibition of SIK3; read-out: SIK3 RF IC50. In short, it runs like this:
as §1

SIK2, sequence (Q9H0K1 whole entry): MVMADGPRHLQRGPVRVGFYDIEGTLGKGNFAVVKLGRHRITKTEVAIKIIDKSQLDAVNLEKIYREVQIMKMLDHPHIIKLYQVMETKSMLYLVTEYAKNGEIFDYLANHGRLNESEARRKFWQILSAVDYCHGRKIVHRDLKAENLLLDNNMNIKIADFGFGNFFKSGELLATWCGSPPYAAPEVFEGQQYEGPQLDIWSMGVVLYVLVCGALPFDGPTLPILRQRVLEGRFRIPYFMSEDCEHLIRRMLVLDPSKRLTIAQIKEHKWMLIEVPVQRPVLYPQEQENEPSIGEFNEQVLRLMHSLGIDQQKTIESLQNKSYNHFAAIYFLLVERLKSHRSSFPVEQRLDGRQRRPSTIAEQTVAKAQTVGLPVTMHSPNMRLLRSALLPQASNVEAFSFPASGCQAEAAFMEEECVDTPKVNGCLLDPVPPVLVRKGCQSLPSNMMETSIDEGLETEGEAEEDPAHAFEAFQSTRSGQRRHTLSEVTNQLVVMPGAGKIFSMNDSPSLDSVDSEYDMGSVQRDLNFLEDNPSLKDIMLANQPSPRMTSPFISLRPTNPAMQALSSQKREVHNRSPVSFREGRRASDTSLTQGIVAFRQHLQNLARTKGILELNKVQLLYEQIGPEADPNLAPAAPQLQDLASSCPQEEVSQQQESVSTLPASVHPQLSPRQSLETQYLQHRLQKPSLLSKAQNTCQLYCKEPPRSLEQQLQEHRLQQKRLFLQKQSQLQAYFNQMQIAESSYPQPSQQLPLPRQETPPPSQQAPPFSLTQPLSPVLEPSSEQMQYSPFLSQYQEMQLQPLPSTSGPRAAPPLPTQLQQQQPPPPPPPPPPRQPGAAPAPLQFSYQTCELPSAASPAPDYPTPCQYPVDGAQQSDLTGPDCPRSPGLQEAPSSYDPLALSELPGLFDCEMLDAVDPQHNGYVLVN
SIK3, sequence (Q9Y2K2 whole entry): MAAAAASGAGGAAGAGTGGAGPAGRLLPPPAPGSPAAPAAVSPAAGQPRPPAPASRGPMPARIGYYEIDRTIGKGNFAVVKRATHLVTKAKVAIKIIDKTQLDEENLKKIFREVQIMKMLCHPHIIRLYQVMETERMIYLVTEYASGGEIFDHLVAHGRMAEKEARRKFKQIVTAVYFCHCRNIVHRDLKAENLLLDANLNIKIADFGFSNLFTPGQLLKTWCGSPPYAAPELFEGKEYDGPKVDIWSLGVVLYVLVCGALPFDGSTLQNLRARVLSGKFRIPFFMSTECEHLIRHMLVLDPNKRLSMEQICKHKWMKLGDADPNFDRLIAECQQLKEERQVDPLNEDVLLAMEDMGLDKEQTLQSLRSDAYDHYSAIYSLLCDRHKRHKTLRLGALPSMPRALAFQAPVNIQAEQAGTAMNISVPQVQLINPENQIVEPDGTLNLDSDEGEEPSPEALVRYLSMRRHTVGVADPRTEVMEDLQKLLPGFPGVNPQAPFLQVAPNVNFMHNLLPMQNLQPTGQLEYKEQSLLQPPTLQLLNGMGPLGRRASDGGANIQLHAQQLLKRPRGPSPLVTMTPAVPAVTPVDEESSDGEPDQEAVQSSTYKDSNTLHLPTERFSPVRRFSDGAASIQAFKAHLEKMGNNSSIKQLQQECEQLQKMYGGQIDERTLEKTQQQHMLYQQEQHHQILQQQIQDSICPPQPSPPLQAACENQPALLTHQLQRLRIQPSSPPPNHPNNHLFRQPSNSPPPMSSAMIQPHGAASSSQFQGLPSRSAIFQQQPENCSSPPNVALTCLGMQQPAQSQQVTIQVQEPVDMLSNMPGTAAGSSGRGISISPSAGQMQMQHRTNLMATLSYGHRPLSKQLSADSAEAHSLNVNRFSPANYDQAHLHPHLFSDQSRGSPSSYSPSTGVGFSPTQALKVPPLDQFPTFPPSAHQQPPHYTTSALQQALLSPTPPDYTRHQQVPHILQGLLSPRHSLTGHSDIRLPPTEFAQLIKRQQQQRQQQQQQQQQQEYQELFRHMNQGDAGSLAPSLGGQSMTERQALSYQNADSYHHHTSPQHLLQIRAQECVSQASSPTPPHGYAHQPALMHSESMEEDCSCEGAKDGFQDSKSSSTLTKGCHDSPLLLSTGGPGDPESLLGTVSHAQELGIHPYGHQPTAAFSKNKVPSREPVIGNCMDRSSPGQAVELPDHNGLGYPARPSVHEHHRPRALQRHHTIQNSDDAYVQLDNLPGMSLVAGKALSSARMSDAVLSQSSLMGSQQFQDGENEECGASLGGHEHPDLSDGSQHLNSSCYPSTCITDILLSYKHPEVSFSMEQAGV
SIK1, sequence (P57059 whole entry): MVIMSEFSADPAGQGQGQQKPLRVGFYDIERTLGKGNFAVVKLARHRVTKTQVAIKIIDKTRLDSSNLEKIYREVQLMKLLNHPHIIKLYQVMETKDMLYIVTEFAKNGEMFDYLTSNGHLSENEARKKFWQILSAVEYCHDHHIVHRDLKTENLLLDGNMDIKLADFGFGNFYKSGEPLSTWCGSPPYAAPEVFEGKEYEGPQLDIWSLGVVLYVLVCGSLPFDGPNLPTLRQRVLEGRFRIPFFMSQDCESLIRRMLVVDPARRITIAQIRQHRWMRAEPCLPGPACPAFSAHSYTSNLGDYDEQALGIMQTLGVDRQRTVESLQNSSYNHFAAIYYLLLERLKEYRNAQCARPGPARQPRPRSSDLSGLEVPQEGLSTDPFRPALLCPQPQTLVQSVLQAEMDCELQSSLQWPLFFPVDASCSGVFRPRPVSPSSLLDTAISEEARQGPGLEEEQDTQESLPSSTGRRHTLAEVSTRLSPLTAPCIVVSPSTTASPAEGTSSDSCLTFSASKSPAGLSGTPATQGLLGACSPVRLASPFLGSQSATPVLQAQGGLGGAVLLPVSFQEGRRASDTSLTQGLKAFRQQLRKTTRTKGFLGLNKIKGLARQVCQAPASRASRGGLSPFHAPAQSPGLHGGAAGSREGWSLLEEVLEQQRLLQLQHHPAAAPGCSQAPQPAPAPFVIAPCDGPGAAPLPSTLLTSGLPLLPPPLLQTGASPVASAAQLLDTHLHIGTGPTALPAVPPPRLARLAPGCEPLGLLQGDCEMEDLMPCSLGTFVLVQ

`Cc1ccc(Nc2ccc3ncn(-c4ccc(C(C)O)c(N5CC(C)(C#N)C5)n4)c3c2)nn1` (stereo not drawn) [Example 184, 1-[3-(1-Hydroxyethyl)-6-[6-[(6-methylpyridazin-3-yl)amino]benzimidazol-1-yl]-2-pyridyl]-3-methyl-azetidine-3-carbonitrile]: the figures for the 50% inhibitory concentration (IC50) at SIK1, at SIK2 and on SIK3 were 1990 nM, 2500 nM and 1900 nM, respectively.

Turning to `COc1cc2c(cc1Nc1ccc(C)nn1)ncn2-c1ccc(C(C)O)c(-n2nc(C#N)cc2C)n1` (stereo not drawn) [Example 185, 1-[3-(1-Hydroxyethyl)-6-[6-methoxy-5-[(6-methylpyridazin-3-yl)amino]benzimidazol-1-yl]-2-pyridyl]-5-methyl-pyrazole-3-carbonitrile], the half-inhibitory concentration (IC50) turned out to be 6 nM on SIK1, 0.3 nM on SIK2 and 0.7 nM at SIK3.

On to `COCCOc1cc2c(cc1Nc1ccc(C)nn1)ncn2-c1ccc(C(C)O)c(-n2nc(C#N)cc2C)n1` (stereo not drawn) [Example 187, 1-[3-(1-Hydroxyethyl)-6-[6-(2-methoxyethoxy)-5-[(6-methylpyridazin-3-yl)amino]benzimidazol-1-yl]-2-pyridyl]-5-methyl-pyrazole-3-carbonitrile], for which the results for the half-inhibitory concentration (IC50) on SIK1, at SIK2 and on SIK3 were 70 nM, 2 nM and 5.6 nM, respectively.

On to `Cc1ccc(Nc2cc3ncn(-c4ccc(C(C)O)c(-n5nc(C#N)cc5C)n4)c3cc2OCCN(C)C)nn1` (stereo not drawn) [Example 189, 1-[6-[6-[2-(Dimethylamino)ethoxy]-5-[(6-methylpyridazin-3-yl)amino]benzimidazol-1-yl]-3-(1-hydroxyethyl)-2-pyridyl]-5-methyl-pyrazole-3-carbonitrile], for which the half-maximal inhibitory concentration (IC50) was found to be 186 nM on SIK1, 3.9 nM on SIK2 and 4.7 nM at SIK3.

For the compound `Cc1cc(C#N)nn1-c1nc(-n2cnc3cc(Br)c(N4CCN(C5COC5)CC4)cc32)ccc1C(C)O` (stereo not drawn) [Example 190, 1-[6-[5-Bromo-6-[4-(oxetan-3-yl)piperazino]benzimidazol-1-yl]-3-(1-hydroxyethyl)-2-pyridyl]-5-methyl-pyrazole-3-carbonitrile], the IC50 on SIK1 was found to be 84 nM; at SIK2, 50.8 nM; at SIK3, 382 nM.

In the case of `COC1CN(C(=O)c2ccc(Nc3ccc4c(c3)ncn4-c3ccc(C(C)O)c(-n4nc(C#N)cc4C)n3)nn2)C1` (stereo not drawn) [Example 191, 1-[3-(1-Hydroxyethyl)-6-[5-[[6-(3-methoxyazetidine-1-carbonyl)pyridazin-3-yl]amino]benzimidazol-1-yl]-2-pyridyl]-5-methyl-pyrazole-3-carbonitrile], the half-maximal inhibitory concentration (IC50) was 53 nM at SIK1, 2.7 nM on SIK2 and 2.2 nM on SIK3.

For `Cc1ccc(Nc2cc3ncn(-c4ccc(C(C)O)c(-n5nc(C#N)cc5C)n4)c3cc2OC2CCNC2)nn1` (stereo not drawn) [Example 192, 1-[3-(1-Hydroxyethyl)-6-[5-[(6-methylpyridazin-3-yl)amino]-6-pyrrolidin-3-yloxy-benzimidazol-1-yl]-2-pyridyl]-5-methyl-pyrazole-3-carbonitrile], the concentration for half-maximal inhibition (IC50) on SIK1 is 196 nM; on SIK2 it was 3.1 nM; at SIK3 it was 4 nM.

On to `COCCOc1ccc(Nc2ccc3c(c2)ncn3-c2ccc(C(C)O)c(-n3nc(C#N)cc3C)n2)nn1` (stereo not drawn) [Example 193, 1-[3-(1-Hydroxyethyl)-6-[5-[[6-(2-methoxyethoxy)pyridazin-3-yl]amino]benzimidazol-1-yl]-2-pyridyl]-5-methyl-pyrazole-3-carbonitrile], for which the results for the 50% inhibitory concentration (IC50) at SIK1, on SIK2 and on SIK3 were 68 nM, 3.2 nM and 1.9 nM, respectively.

In the case of `Cc1ccc(Nc2ccc3c(c2)ncn3-c2ccc(C(C)O)c(-c3cccc4[nH]nnc34)n2)nn1` (stereo not drawn) [Example 194, 1-[2-(1H-Benzotriazol-4-yl)-6-[5-[(6-methylpyridazin-3-yl)amino]benzimidazol-1-yl]-3-pyridyl]ethanol], the IC50 is 3330 nM on SIK1, 288 nM on SIK2 and 29.5 nM on SIK3.

As for `Cc1cc(C#N)nn1-c1nc(-n2cnc3cc(Nc4ccc(OCC(F)F)nn4)ccc32)ccc1C(C)O` (stereo not drawn) [Example 195, 1-[6-[5-[[6-(2,2-Difluoroethoxy)pyridazin-3-yl]amino]benzimidazol-1-yl]-3-(1-hydroxyethyl)-2-pyridyl]-5-methyl-pyrazole-3-carbonitrile], the IC50 on SIK1 was determined as 20 nM; on SIK2 it was 3.1 nM; on SIK3, 1.4 nM.

For the compound `Cc1cc(C#N)nn1-c1nc(-n2cnc3cc(Nc4ccc(OC(F)F)nn4)ccc32)ccc1C(C)O` (stereo not drawn) [Example 197, 1-[6-[5-[[6-(Difluoromethoxy)pyridazin-3-yl]amino]benzimidazol-1-yl]-3-(1-hydroxyethyl)-2-pyridyl]-5-methyl-pyrazole-3-carbonitrile], the figures for the half-inhibitory concentration (IC50) at SIK1, at SIK2 and on SIK3 were 15 nM, 2.3 nM and 0.9 nM, respectively.

Take `Cc1ccc(Nc2ccc3c(c2)ncn3-c2ccc(C(O)C(F)F)c(-n3nc(C#N)cc3C)n2)nn1` (stereo not drawn) [Example 198, 1-[3-(2,2-Difluoro-1-hydroxy-ethyl)-6-[5-[(6-methylpyridazin-3-yl)amino]benzimidazol-1-yl]-2-pyridyl]-5-methyl-pyrazole-3-carbonitrile]: the IC50 came to 391 nM at SIK1, 7 nM at SIK2 and 1.8 nM on SIK3.

Consider `Cc1ccc(Nc2ccc3ncn(-c4ccc(C(O)C(F)F)c(-n5nc(C#N)cc5C)n4)c3c2)nn1` (stereo not drawn) [Example 199, 1-[3-(2,2-Difluoro-1-hydroxy-ethyl)-6-[6-[(6-methylpyridazin-3-yl)amino]benzimidazol-1-yl]-2-pyridyl]-5-methyl-pyrazole-3-carbonitrile], for which the IC50 on SIK1 was 245 nM; on SIK2 it was 171 nM; on SIK3 it was 371 nM.

For the compound `Cc1cc(C#N)nn1-c1nc(-n2cnc3cc(CN4CCCS4(=O)=O)ccc32)ccc1C(C)O` (stereo not drawn) [Example 201, 1-[6-[5-[(1,1-Dioxo-1,2-thiazolidin-2-yl)methyl]benzimidazol-1-yl]-3-(1-hydroxyethyl)-2-pyridyl]-5-methyl-pyrazole-3-carbonitrile], the IC50 came out at 111 nM on SIK1, 62.1 nM at SIK2 and 321 nM on SIK3.

In the case of `Cc1cc(C#N)nn1-c1nc(-n2cnc3ccc(CN4CCCS4(=O)=O)cc32)ccc1C(C)O` (stereo not drawn) [Example 202, 1-[6-[6-[(1,1-Dioxo-1,2-thiazolidin-2-yl)methyl]benzimidazol-1-yl]-3-(1-hydroxyethyl)-2-pyridyl]-5-methyl-pyrazole-3-carbonitrile], the concentration for half-maximal inhibition (IC50) worked out at 1020 nM at SIK1, 500 nM on SIK2 and 205 nM at SIK3.

As to `COc1c(O)cccc1-c1nc(-n2cnc3cc(Nc4ccc(C)nn4)ccc32)ccc1C(C)O` (stereo not drawn) [Example 203, 3-[3-(1-Hydroxyethyl)-6-[5-[(6-methylpyridazin-3-yl)amino]benzimidazol-1-yl]-2-pyridyl]-2-methoxy-phenol; formic acid], the concentration for half-maximal inhibition (IC50) at SIK1 worked out at 14400 nM; at SIK2 it was 520 nM; on SIK3, 55.4 nM.

As to `Cc1ccc(Nc2ccc3c(c2)ncn3-c2ccc(C(C)O)c(-c3ccoc3C#N)n2)nn1` (stereo not drawn) [Example 204, 3-[3-(1-Hydroxyethyl)-6-[5-[(6-methylpyridazin-3-yl)amino]benzimidazol-1-yl]-2-pyridyl]furan-2-carbonitrile], the values for the IC50 at SIK1, on SIK2 and at SIK3 were 9950 nM, 141 nM and 34.4 nM, respectively.

Turning to `Cc1ccc(Nc2ccc3c(c2)ncn3-c2ccc(C(C)O)c(-n3nc(C#N)c4c3CCNC4)n2)nn1` (stereo not drawn) [Example 205, 1-[3-(1-Hydroxyethyl)-6-[5-[(6-methylpyridazin-3-yl)amino]benzimidazol-1-yl]-2-pyridyl]-4,5,6,7-tetrahydropyrazolo[4,3-c]pyridine-3-carbonitrile], the half-maximal inhibitory concentration (IC50) on SIK1 is 3 nM; on SIK2, 0.3 nM; on SIK3, 0.3 nM.

`Cc1cc(C#N)nn1-c1nc(-n2cnc3cc(Nc4ccc(OCCN5CCS(=O)(=O)CC5)nn4)ccc32)ccc1C(C)O` (stereo not drawn) [Example 206, 1-[6-[5-[[6-[2-(1,1-Diketo-1,4-thiazinan-4-yl)ethoxy]pyridazin-3-yl]amino]benzimidazol-1-yl]-3-(1-hydroxyethyl)-2-pyridyl]-5-methyl-pyrazole-3-carbonitrile]: the values for the IC50 on SIK1, at SIK2 and on SIK3 were 72 nM, 4.5 nM and 5.3 nM, respectively.

As to `Cc1cc(C#N)nn1-c1nc(-n2cnc3cc(Nc4ccc(OC5COC5)nn4)ccc32)ccc1C(C)O` (stereo not drawn) [Example 207, 1-[3-(1-Hydroxyethyl)-6-[5-[[6-(oxetan-3-yloxy)pyridazin-3-yl]amino]benzimidazol-1-yl]-2-pyridyl]-5-methyl-pyrazole-3-carbonitrile], the IC50 came out at 27 nM at SIK1, 3.7 nM at SIK2 and 2.6 nM at SIK3.

For `Cc1ccc(Nc2ccc3c(c2)ncn3-c2ccc(C(C)O)c(O[C@H]3CCNC3)n2)nn1` (stereo partly drawn) [Example 208, 1-[6-[5-[(6-Methylpyridazin-3-yl)amino]benzimidazol-1-yl]-2-[(3S)-pyrrolidin-3-yl]oxy-3-pyridyl]ethanol], the IC50 on SIK1 turned out to be 462 nM; at SIK2, 29.7 nM; at SIK3, 4.8 nM.

Regarding `Cc1cc(C#N)nn1-c1nc(-n2cnc3ccc(CN4CCCC4=O)cc32)ccc1C(C)O` (stereo not drawn) [Example 212, 1-[3-(1-Hydroxyethyl)-6-[6-[(2-oxopyrrolidin-1-yl)methyl]benzimidazol-1-yl]-2-pyridyl]-5-methyl-pyrazole-3-carbonitrile], the IC50 on SIK1 worked out at 453 nM; on SIK2 it was 292 nM; on SIK3 it was 1580 nM.
